PubChem BioAssay (NCI)
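Following 48 hours of exposure in 96-well plates, responses at five concentrations were used to interpolate endpoints linearly. The concentration for 50% growth inhibition is given as GI50. TGI denotes the concentration required for complete inhibition of growth.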

How the values were obtained:
Experiment in all cases: growth of human tumour cells (NCI), 48 h
SNB-19 CNS = system: SNB-19 CNS
MCF7 breast = system: MCF7 breast
HCT-116 colon = system: HCT-116 colon
UACC-257 melanoma = system: UACC-257 melanoma
NCI/ADR-RES ovarian = system: NCI/ADR-RES ovarian
NCI-H522 lung = system: NCI-H522 lung
UO-31 renal = system: UO-31 renal
NCI-H226 lung = system: NCI-H226 lung
SR leukemia = system: SR leukemia
OVCAR-4 ovarian = system: OVCAR-4 ovarian
A549 NSCLC = system: A549 NSCLC
SN12C renal = system: SN12C renal
OVCAR-3 ovarian = system: OVCAR-3 ovarian
KM12 colon = system: KM12 colon
IGROV1 ovarian = system: IGROV1 ovarian
U251 CNS = system: U251 CNS
PC-3 prostate = system: PC-3 prostate
NCI-H460 lung = system: NCI-H460 lung
SK-OV-3 ovarian = system: SK-OV-3 ovarian
HT29 colon = system: HT29 colon
CCRF-CEM leukemia = system: CCRF-CEM leukemia
HCC-2998 colon = system: HCC-2998 colon
K-562 leukemia = system: K-562 leukemia
OVCAR-5 ovarian = system: OVCAR-5 ovarian
M14 melanoma = system: M14 melanoma
HCT-15 colon = system: HCT-15 colon
TK-10 renal = system: TK-10 renal
NCI-H23 lung = system: NCI-H23 lung
HOP-92 NSCLC = system: HOP-92 NSCLC
UACC-62 melanoma = system: UACC-62 melanoma
MDA-MB-231 breast = system: MDA-MB-231 breast
T-47D breast = system: T-47D breast
SNB-75 CNS = system: SNB-75 CNS
SF-295 CNS = system: SF-295 CNS
A498 renal = system: A498 renal
SF-268 CNS = system: SF-268 CNS
CAKI-1 renal = system: CAKI-1 renal
ACHN renal = system: ACHN renal
MOLT-4 leukemia = system: MOLT-4 leukemia
SF-539 CNS = system: SF-539 CNS
786-0 renal = system: 786-0 renal
LOX IMVI melanoma = system: LOX IMVI melanoma
MDA-N = system: MDA-N
HL-60(TB) leukemia = system: HL-60(TB) leukemia
EKVX NSCLC = system: EKVX NSCLC
MALME-3M melanoma = system: MALME-3M melanoma
SW-620 colon = system: SW-620 colon
OVCAR-8 ovarian = system: OVCAR-8 ovarian
SK-MEL-28 melanoma = system: SK-MEL-28 melanoma
HS 578T breast = system: HS 578T breast
HOP-62 NSCLC = system: HOP-62 NSCLC
SK-MEL-2 melanoma = system: SK-MEL-2 melanoma
DU-145 prostate = system: DU-145 prostate
COLO 205 colon = system: COLO 205 colon
MDA-MB-435 = system: MDA-MB-435
BT-549 breast = system: BT-549 breast
SK-MEL-5 melanoma = system: SK-MEL-5 melanoma
RPMI-8226 leukemia = system: RPMI-8226 leukemia

`O=C1CNc2cc(N3CCN(c4cccc(C(F)(F)F)c4)CC3)ccc2N1` was tested, and the TGI (SNB-19 CNS) was greater than 100 µM, the TGI (MCF7 breast) was greater than 90.1 µM and the TGI (HCT-116 colon) was greater than 100 µM. For the same molecule, the TGI (UACC-257 melanoma) was greater than 100 µM, the TGI (NCI/ADR-RES ovarian) was greater than 91.1 µM and the TGI (NCI-H522 lung) was 46 µM. For the same molecule, the TGI (UO-31 renal) was greater than 100 µM, the TGI (NCI-H226 lung) was greater than 100 µM and the TGI (SR leukemia) was greater than 100 µM. For the same molecule, the TGI (OVCAR-4 ovarian) was greater than 100 µM, the TGI (A549 NSCLC) was greater than 100 µM and the TGI (SN12C renal) was greater than 100 µM. For the same molecule, the TGI (OVCAR-3 ovarian) was greater than 100 µM, the TGI (KM12 colon) was greater than 100 µM and the TGI (IGROV1 ovarian) was greater than 100 µM. For the same molecule, the TGI (U251 CNS) was greater than 100 µM, the TGI (PC-3 prostate) was greater than 82.7 µM and the TGI (NCI-H460 lung) was greater than 100 µM. It also gave a TGI (SK-OV-3 ovarian) greater than 100 µM, a TGI (HT29 colon) greater than 100 µM and a TGI (CCRF-CEM leukemia) greater than 100 µM. For the same molecule, the TGI (HCC-2998 colon) was greater than 100 µM, the GI50 (K-562 leukemia) was 9 µM and the TGI (K-562 leukemia) was greater than 100 µM. For the same molecule, the TGI (OVCAR-5 ovarian) was greater than 100 µM, the TGI (M14 melanoma) was greater than 100 µM and the TGI (HCT-15 colon) was greater than 100 µM. It also gave a TGI (TK-10 renal) greater than 100 µM, a TGI (NCI-H23 lung) greater than 100 µM and a TGI (HOP-92 NSCLC) greater than 78.8 µM. The TGI (UACC-62 melanoma) was greater than 86.1 µM, the TGI (MDA-MB-231 breast) was greater than 100 µM and the TGI (T-47D breast) was greater than 100 µM. It also gave a TGI (SNB-75 CNS) greater than 100 µM, a TGI (SF-295 CNS) greater than 92.3 µM and a GI50 (A498 renal) of 24.7 µM. For the same molecule, the TGI (A498 renal) was greater than 100 µM, the TGI (SF-268 CNS) was greater than 100 µM and the TGI (CAKI-1 renal) was greater than 100 µM. For the same molecule, the TGI (ACHN renal) was greater than 100 µM, the TGI (MOLT-4 leukemia) was greater than 84.3 µM and the TGI (SF-539 CNS) was greater than 100 µM. It also gave a TGI (786-0 renal) greater than 100 µM, a TGI (LOX IMVI melanoma) greater than 100 µM and a TGI (MDA-N) greater than 100 µM. It also gave a TGI (HL-60(TB) leukemia) greater than 83.5 µM, a TGI (EKVX NSCLC) greater than 100 µM and a TGI (MALME-3M melanoma) of 69.9 µM. The TGI (SW-620 colon) was greater than 100 µM, the TGI (OVCAR-8 ovarian) was greater than 100 µM and the TGI (SK-MEL-28 melanoma) was greater than 100 µM. It also gave a TGI (HS 578T breast) greater than 100 µM, a TGI (HOP-62 NSCLC) greater than 100 µM and a TGI (SK-MEL-2 melanoma) greater than 100 µM. It also gave a TGI (DU-145 prostate) greater than 100 µM, a TGI (COLO 205 colon) greater than 91.7 µM and a TGI (MDA-MB-435) greater than 100 µM. It also gave a TGI (BT-549 breast) greater than 100 µM, a TGI (SK-MEL-5 melanoma) of 40.3 µM and a TGI (RPMI-8226 leukemia) greater than 67.5 µM.
